According to patent US20070026080A1, “Manufacturing process for tigecycline” (Wyeth, priority 2005, published 2007):

Test: Strength and degradation profile of tigecycline 20 mg/mL bulk solutions by reversed phase HPLC (effect of temperature, time, pH, dissolved oxygen; Runs A to O)
Type: physicochemical
Conditions: 20 mg/mL
Method: The contents of the sample vials are dissolved in diluent. The sample solution is diluted, if necessary, and chromatographed on a reversed phase column using gradient elution. Impurities are determined by comparing the impurity peak areas in the sample preparation chromatogram to the average area of tigecycline peaks in the standard preparation chromatograms obtained concomitantly.
Chromatographic Column—Length about 15 cm, inside diameter about 4.6 mm, packed with Inertsil ODS2, 5 μm size particles or equivalent.
Detector—Ultraviolet spectrophotometric detector capable of operating at 248 nm with a sensitivity of about 0.5 absorbance units full scale.
The results of additional studies to investigate the effect of processing parameters such as temperature, time, and dissolved oxygen content on the purity profile of tigecycline solutions using the following materials, methods and procedures are presented in Tables A to O.
The experiments were run in plastic glove bags under normal laboratory light conditions. Plastic glove boxes will be used to control the headspace of the beakers. The batch size was 200 mL. • 1. Prepare the glove bag with a mixture of nitrogen and air to achieve an oxygen level in the solution as per the design. • 2. Place the jacketed beaker on the magnetic stirrer. Connect it to the cooler. Set the cooler to the desired set point. • 3. Add 200 mL of SWFI in to the beaker. Allow equilibrating. Measure the temperature and oxygen content. When it reaches the desired condition, add accurately weighed API and mix until dissolved. If necessary use spatula to aid dissolution. For pH adjustments, use 4 mL of either 0.1N NaOH or 0.1N HCl and 196 mL of WFI for manufacture. • 4. After complete dissolution, Transfer about 5.5 mL of Solution in vials and stopper them. These vials will be stoppered at the appropriate headspace conditions. Place the vials in appropriate temperature conditions. • 5. Sample the vials at 1, 4, 8, 10, 12 and 24 hours. Send the samples for analysis. Freeze the 10, 12 and 24 samples at −20° C. for analysis the following day. • 6. Measure pH and record color of the solution at each time point. Results
The 1-hour samples were taken directly from the beakers. Samples for later time points were collected in stoppered vials processed in the atmosphere of the bag in order to simulate the headspace conditions then placed in water baths or refrigerator to maintain there respective temperature conditions. This was done to maintain safety in the lab. Disposable plastic glove bags require constant flow of a mixture of nitrogen and air to maintain headspace oxygen level that will result in the desired dissolved oxygen (DO) content in the sample. The pH of samples was measured at each sample points.
Strength and degradation profile was analyzed by HPLC as described above. […] Degradation was slightly higher at higher temperature condition.

[1] = Run #F, 2° C., hours 1,4,8,12,24 at r5-r9, 8 h after preparation
[2] = Run #F, 2° C., hours 1,4,8,12,24 at r5-r9, 12 h after preparation
[3] = Run #F, 2° C., hours 1,4,8,12,24 at r5-r9, 24 h after preparation
[4] = Run #G, 5° C., hours 1,4,8,12,24 at r6-r10, after 4 hours
[5] = Run #G, 5° C., hours 1,4,8,12,24 at r6-r10, after 24 hours
[6] = Run #G, 5° C., hours 1,4,8,12,24 at r16-r20, after 1 hours
[7] = Run #G, 5° C., hours 1,4,8,12,24 at r16-r20, after 4 hours
[8] = Run #G, 5° C., hours 1,4,8,12,24 at r16-r20, after 8 hours
[9] = Run #G, 5° C., hours 1,4,8,12,24 at r16-r20, after 12 hours
[10] = Run #G, 5° C., hours 1,4,8,12,24 at r16-r20, after 24 hours
[11] = Run #H, 5° C., pH 7.9, Oxygen 1.0 mg/L, hours 1,4,8,10,12,24 at r6-r11
[12] = Run #H, 5° C., pH 7.9, Oxygen 1.0 mg/L, hours 1,4,8,10,12,24 at r6-r11, 1 h
[13] = Run #H, 5° C., pH 7.9, Oxygen 1.0 mg/L, hours 1,4,8,10,12,24 at r6-r11, 4 h
[14] = Run #H, 5° C., pH 7.9, Oxygen 1.0 mg/L, hours 1,4,8,10,12,24 at r6-r11, 10 h
[15] = Run #H, 5° C., pH 7.9, Oxygen 1.0 mg/L, hours 1,4,8,10,12,24 at r6-r11, 12 h
[16] = Run #H, 5° C., pH 7.9, Oxygen 1.0 mg/L, hours 1,4,8,10,12,24 at r6-r11, 24 h
[17] = Run #H, 5° C., pH 7.9, Oxygen 1.0 mg/L, hours 1,4,8,10,12,24 at r17-r22, 1 h
[18] = Run #H, 5° C., pH 7.9, Oxygen 1.0 mg/L, hours 1,4,8,10,12,24 at r17-r22, 4 h
[19] = Run #H, 5° C., pH 7.9, Oxygen 1.0 mg/L, hours 1,4,8,10,12,24 at r17-r22, 8 h
[20] = Run #H, 5° C., pH 7.9, Oxygen 1.0 mg/L, hours 1,4,8,10,12,24 at r17-r22, 10 h
[21] = Run #H, 5° C., pH 7.9, Oxygen 1.0 mg/L, hours 1,4,8,10,12,24 at r17-r22, 12 h
[22] = Run #H, 5° C., pH 7.9, Oxygen 1.0 mg/L, hours 1,4,8,10,12,24 at r17-r22, 24 h
[23] = Run #I, 5° C., pH 7.9, Oxygen 1.0 mg/L, hours 1,4,8,10,12,24 at r6-r11, 1 h
[24] = Run #I, 5° C., pH 7.9, Oxygen 1.0 mg/L, hours 1,4,8,10,12,24 at r6-r11, 4 h
[25] = Run #I, 5° C., pH 7.9, Oxygen 1.0 mg/L, hours 1,4,8,10,12,24 at r6-r11, 8 h
[26] = Run #I, 5° C., pH 7.9, Oxygen 1.0 mg/L, hours 1,4,8,10,12,24 at r6-r11, 10 h
[27] = Run #I, 5° C., pH 7.9, Oxygen 1.0 mg/L, hours 1,4,8,10,12,24 at r6-r11, 12 h

Structure (SMILES): CN(C)c1cc(NC(=O)CNC(C)(C)C)c(O)c2c1C[C@H]1C[C@H]3[C@H](N(C)C)C(O)=C(C(N)=O)C(=O)[C@@]3(O)C(O)=C1C2=O [Tigecycline]
- RRT 1.45 [1]: 0.09%
- RRT 1.85 MW = 597 [1]: 0.08%
- Total [1]: 1.00%
- RRT 0.74 Epimer [2]: 0.18%
- RRT 1.45 [2]: 0.08%
- Total [2]: 1.07%
- RRT 0.74 Epimer [3]: 0.19%
- Total [3]: 1.43%
- Strength (Run #G, 5° C., Oxygen = 1.0 mg/mL, hours 1,4,8,12,24 at r6-r10, after 1 hours): 18.577 mg/mL
- Strength (Run #G, 5° C., Oxygen = 1.0 mg/mL, hours 1,4,8,12,24 at r6-r10, after 4 hours): 18.694 mg/mL
- Strength (Run #G, 5° C., Oxygen = 1.0 mg/mL, hours 1,4,8,12,24 at r6-r10, after 8 hours): 18.487 mg/mL
- Strength (Run #G, 5° C., Oxygen = 1.0 mg/mL, hours 1,4,8,12,24 at r6-r10, after 12 hours): 18.507 mg/mL
- Strength (Run #G, 5° C., Oxygen = 1.0 mg/mL, hours 1,4,8,12,24 at r6-r10, after 24 hours): 18.587 mg/mL
- RRT 1.67 MW = 556 (Run #G, 5° C., Oxygen = 1.0 mg/mL, hours 1,4,8,12,24 at r16-r20, after 1 hours): 0.08%
- RRT 1.67 MW = 556 (Run #G, 5° C., Oxygen = 1.0 mg/mL, hours 1,4,8,12,24 at r16-r20, after 4 hours): 0.14%
- RRT 1.67 MW = 556 (Run #G, 5° C., Oxygen = 1.0 mg/mL, hours 1,4,8,12,24 at r16-r20, after 8 hours): 0.17%
- RRT 1.67 MW = 556 (Run #G, 5° C., Oxygen = 1.0 mg/mL, hours 1,4,8,12,24 at r16-r20, after 12 hours): 0.20%
- RRT 1.67 MW = 556 (Run #G, 5° C., Oxygen = 1.0 mg/mL, hours 1,4,8,12,24 at r16-r20, after 24 hours): 0.23%
- RRT 0.74 Epimer (Run #G, 5° C., hours 1,4,8,12,24 at r6-r10, after 1 hours): 0.16%
- RRT 0.58 [4]: 0.07%
- RRT 0.74 Epimer [4]: 0.17%
- RRT 0.74 Epimer (Run #G, 5° C., hours 1,4,8,12,24 at r6-r10, after 8 hours): 0.18%
- RRT 0.74 Epimer (Run #G, 5° C., hours 1,4,8,12,24 at r6-r10, after 12 hours): 0.20%
- RRT 0.58 [5]: 0.08%
- RRT 0.74 Epimer [5]: 0.21%
- RRT 1.45 [6]: 0.08%
- RRT 1.64 Mino [6]: 0.11%
- RRT 1.85 MW = 597 [6]: 0.08%
- Total [6]: 0.58%
- RRT 1.64 Mino [7]: 0.07%
- Total [7]: 0.78%
- RRT 1.45 [8]: 0.07%
- RRT 1.85 MW = 597 [8]: 0.09%
- Total [8]: 1.12%
- RRT 1.45 [9]: 0.09%
- Total [9]: 1.34%
- RRT 1.85 MW = 597 [10]: 0.10%
- Total [10]: 2.09%
- RRT 0.58 [11]: 0.09%
- RRT 0.64 9-Amino [11]: BRL (BRL means below reporting limit (meaning less than 0.05% of tigecycline peak))
- RRT 0.74 Epimer [12]: 0.19%
- Strength [12]: 19.457 mg/mL
- RRT 0.74 Epimer [13]: 0.20%
- Strength [13]: 19.441 mg/mL
- Strength (Run #H, 5° C., pH 7.9, Oxygen 1.0 mg/L, hours 1,4,8,10,12,24 at r6-r11, 8 h): 19.361 mg/mL
- RRT 0.74 Epimer [14]: 0.25%
- Strength [14]: 19.447 mg/mL
- RRT 0.74 Epimer [15]: 0.27%
- Strength [15]: 20.119 mg/mL
- RRT 0.74 Epimer [16]: 0.23%
- Strength [16]: 19.319 mg/mL
- RRT 0.78 MW = 557 (Run #H, 5° C., pH 7.9, Oxygen 1.0 mg/L, hours 1,4,8,10,12,24 at r17-r22): BRL (BRL means below reporting limit (meaning less than 0.05% of tigecycline peak))
- RRT 1.45 [17]: 0.09%
- RRT 1.64 Mino [17]: 0.12%
- RRT 1.85 MW = 597 [17]: 0.07%
- Total [17]: 0.60%
- RRT 1.45 [18]: 0.07%
- RRT 1.64 Mino [18]: 0.09%
- RRT 1.85 MW = 597 [18]: 0.08%
- Total [18]: 0.70%
- RRT 1.64 Mino [19]: 0.10%
- Total [19]: 0.66%
- RRT 1.64 Mino [20]: 0.11%
- Total [20]: 0.90%
- RRT 1.85 MW = 597 [21]: 0.09%
- Total [21]: 0.87%
- RRT 1.45 [22]: 0.05%
- RRT 1.64 Mino [22]: 0.15%
- RRT 1.85 MW = 597 [22]: 0.10%
- Total [22]: 1.03%
- RRT 0.64 9-Amino (Run #I, 5° C., pH 7.9, Oxygen 1.0 mg/L, hours 1,4,8,10,12,24 at r6-r11): BRL (BRL means below reporting limit (meaning less than 0.05% of tigecycline peak))
- RRT 0.58 [23]: 0.08%
- RRT 0.74 Epimer [23]: 0.19%
- Strength [23]: 19.263 mg/mL
- RRT 0.58 [24]: 0.09%
- RRT 0.74 Epimer [24]: 0.21%
- Strength [24]: 19.361 mg/mL
- RRT 0.58 [25]: 0.06%
- RRT 0.74 Epimer [25]: 0.18%
- Strength [25]: 19.131 mg/mL
- RRT 0.74 Epimer [26]: 0.29%
- Strength [26]: 19.204 mg/mL
- RRT 0.58 [27]: 0.07%
- RRT 0.74 Epimer [27]: 0.26%
